Data published in patent US12588678B2, “Oxazoline compound, synthesis method therefor and application thereof” (NANKAI UNIVERSITY, priority 2019, dated 2026).
Values joined by “and” are separate entries in the source; they are usually repeats but may differ in a detail not shown here. Equal entries are not always repeated.

Experiments:
[1] = system: Tetranychus cinnabarinus mite larvae; assay: Larvicidal activity test, dipping method on bean seedling leaves; format: in vivo; conditions: for mortality at 0.01 µg/mL: read-out: mortality of mite larvae (%), 0.01 mg/L; for mortality at 0.1 µg/mL: read-out: mortality of mite larvae (%), 0.1 mg/L; for mortality at 0.5 µg/mL: read-out: mortality of mite larvae (%), 0.5 mg/L; for mortality at 1 µg/mL: read-out: mortality of mite larvae (%), 1 mg/L; for mortality at 10 µg/mL: read-out: mortality of mite larvae (%), 10 mg/L; for mortality at 100 µg/mL: read-out: mortality of mite larvae (%), 100 mg/L; for mortality at 200 µg/mL: read-out: mortality of mite larvae (%), 200 mg/L; for acaricidal activity compared with etoxazole: Tetranychus cinnabarinus eggs and larvae, etoxazole as reference
Source text: (§1) The assay examples are used to illustrate the acaricidal activity against Tetranychus cinnabarinus (mortality of mite larvae and mortality of mite eggs) of the compounds having the structure represented by formula (I), and the results are shown in tables 1 to 9, where mortality of mite larvae % =(number of dead mite larvae applied/total number of mite larvae applied)×100, and mortality of mite eggs %= (number of dead mite eggs applied/total number of mite eggs applied)×100.
Tetranychus cinnabarinus bred indoors on bean seedlings was used as a test subject by the dipping method. Move adult mites onto the newly grown complete bean seedling leaves with two leaves, cut off the bean seedlings, place the bean seedlings in a greenhouse with illumination at 25° C. for laying eggs for 24 hours, then remove adult mites and keep mite eggs. And continuously culture in the greenhouse for 5 days until mite eggs hatch into mite larvae (ensuring that the number of the mites on each tested leaf is not less than 60).
Completely immerse the bean seedling leaves containing the mite larvae into the sample solution to be detected with Tween at the prepared concentration for 5-6 seconds by using tweezers, slightly throw off residual liquid, put the bean seedling leaves back to the culture cup, continuously culture for 4 days and check the result. One of the plants was immersed in a solution containing no sample to be tested and the remaining additives were identical to the sample solution as a blank control. Each compound was replicated three times.

[2] = system: Tetranychus cinnabarinus mite eggs; assay: Activity against mite eggs, dipping method on bean seedling leaves; format: in vivo; conditions: for mortality at 0.01 µg/mL: read-out: mortality of mite eggs (%), 0.01 mg/L; for mortality at 0.5 µg/mL: read-out: mortality of mite eggs (%), 0.5 mg/L; for mortality at 1 µg/mL: read-out: mortality of mite eggs (%), 1 mg/L; for mortality at 10 µg/mL: read-out: mortality of mite eggs (%), 10 mg/L; for mortality at 100 µg/mL: read-out: mortality of mite eggs (%), 100 mg/L; for mortality at 200 µg/mL: read-out: mortality of mite eggs (%), 200 mg/L; for mortality at 0.1 µg/mL: read-out: mortality of mite eggs (%), 0.1 mg/L
Source text: as §1
Tetranychus cinnabarinus bred indoors on bean seedlings was used as a test subject by the dipping method. Move female adult mites onto the newly grown complete bean seedling leaves with two leaves, cut off the bean seedlings, place the bean seedlings in a greenhouse with illumination at 25° C. for laying eggs for 24 hours, then remove adult mites and keep mite eggs. After continuously culturing in the greenhouse for one day, completely soak the bean seedling leaves containing the acarid eggs into the prepared sample solution to be tested for 5-6 seconds by using tweezers, slightly throw off residual liquid, put the bean seedling leaves back to the culture cup, continuously culture for 4 days and then check the result. One of the plants was immersed in a solution containing no sample to be tested and the remaining additives were identical to the sample solution as a blank control. Each compound was replicated three times.

[3] = Tetranychus cinnabarinus, 96 h, checked after 4 days

SMILES	mortality at 0.1 µg/mL [1, 3] [%]	mortality at 1 µg/mL [1, 3] [%]	mortality at 10 µg/mL [1, 3] [%]	mortality at 100 µg/mL [1, 3] [%]	mortality at 200 µg/mL [1, 3] [%]	mortality at 1 µg/mL [2, 3] [%]	mortality at 10 µg/mL [2, 3] [%]	mortality at 100 µg/mL [2, 3] [%]	mortality at 200 µg/mL [2, 3] [%]	mortality at 0.1 µg/mL [2, 3] [%]	also measured
CCOc1cc(C(C)(C)C)ccc1C1COC(c2c(F)cccc2F)=N1 (stereo not shown) [Etoxazole, reference compound]	65	80	90	100	100	70	90	100	100	–	mortality of mite larvae (%) ([1]; 10 mg/L, checked after 4 days): 100%; mortality at 0.01 µg/mL [1, 3]: 30%; mortality at 0.05 µg/mL ([1]; Tetranychus cinnabarinus, 96 h, read-out: mortality of mite larvae (%), 0.05 mg/L, checked after 4 days): 30%; mortality at 0.5 µg/mL [1, 3]: 80%; mortality of mite eggs (%) ([2]; 0.1 mg/L, checked after 4 days): 60%; mortality of mite eggs (%) ([2]; 0.5 mg/L, checked after 4 days): 60%; mortality of mite eggs (%) ([2]; 10 mg/L, checked after 4 days): 100% and 95%; LC50 ([2]; Tetranychus cinnabarinus, 96 h, read-out: LC50 (against mite eggs), mite eggs, from regression y = ax + b): 0.128 µg/mL; mortality at 0.01 µg/mL [2, 3]: 30%; mortality at 0.05 µg/mL ([2]; Tetranychus cinnabarinus, 96 h, read-out: mortality of mite eggs (%), 0.05 mg/L, checked after 4 days): 30%; mortality at 0.5 µg/mL [2, 3]: 80%
O=S(=O)(Oc1ccc(C2COC(c3c(F)cccc3F)=N2)cc1)c1cccc(F)c1 (stereo not shown) [Compound R3-12]	–	50	90	100	100	55	90	100	100	–	–
CCOCc1ccc(C2COC(c3c(F)cccc3F)=N2)cc1 (stereo not shown) [Compound R2-2]	80	90	90	100	100	95	100	100	100	85	acaricidal activity compared with etoxazole [1]: higher acaricidal activity than etoxazole; mortality at 0.001 µg/mL ([1]; Tetranychus cinnabarinus, 96 h, read-out: mortality of mite larvae (%), 0.001 mg/L, checked after 4 days): 30%; mortality at 0.01 µg/mL [1, 3]: 50%; mortality at 0.5 µg/mL [1, 3]: 83%; mortality at 0.001 µg/mL ([2]; Tetranychus cinnabarinus, 96 h, read-out: mortality of mite eggs (%), 0.001 mg/L, checked after 4 days): 40%; mortality at 0.01 µg/mL [2, 3]: 65%; mortality at 0.5 µg/mL [2, 3]: 90%
Cc1cn(Cc2ccc(C3COC(c4ccccc4F)=N3)cc2)c2ccccc12 (stereo not shown) [Compound R1-19]	–	–	–	–	–	–	–	–	–	–	acaricidal activity compared with etoxazole [1]: higher acaricidal activity than etoxazole
Cc1ccc(OCc2ccc(C3COC(c4c(F)cccc4F)=N3)cc2)cc1 (stereo not shown) [Compound R2-22]	–	55	88	96	100	90	100	100	100	80	–
Fc1cccc(F)c1C1=NC(c2ccc(COCC#Cc3ccccc3)cc2)CO1 (stereo not shown) [Compound R2-8]	50	80	92	100	100	80	90	100	100	60	–
Fc1cccc(F)c1C1=NC(c2ccc(Cn3cccc3)cc2)CO1 (stereo not shown) [Compound R1-5]	–	–	40	90	100	–	45	100	100	–	–
Fc1cccc(F)c1C1=NC(c2ccc(COCc3ccco3)cc2)CO1 (stereo not shown) [Compound R2-10]	–	–	62	80	95	–	75	100	100	–	–
O=S(=O)(Oc1ccc(C2COC(c3c(F)cccc3F)=N2)cc1)c1ccc(F)cc1F (stereo not shown) [Compound R3-14]	60	80	95	100	100	50	85	90	100	–	–
O=S(=O)(Oc1ccc(C2COC(c3c(F)cccc3F)=N2)cc1)c1ccc(I)cc1 (stereo not shown) [Compound R3-10]	–	65	88	100	100	60	85	100	100	–	–
